*1 amine or outer side, *2 acyl side, *3 side chain or, on linkers, in order; H or OH if unused. Where a SMILES comes first, the peptide text is derived from it. [ ]: non-standard residue; d: D form. The star is where a group is joined. ξ: configuration not given here. DOTA = O=C(O)CN1CCN(CC(=O)O)CCN(CC(=O)*)CCN(CC(=O)O)CC1; Butanoyl(4-(4-MeO-phenyl)) = COc1ccc(CCCC(=O)*)cc1; ξAla(9-anthryl) = NC(Cc1c2ccccc2cc2ccccc12)C(=O)O; X2 = O=C(NC(CCCCN*)C(=O)O)NC(CC(F)C(=O)O)C(=O)O; X1 = O=C(C1CCC(CN[*:1])CC1)[*:2]; ξK = NCCCCC(N)C(=O)O
Test system: NRG-mice bearing LNCaP tumors
Test: Biodistribution (and PET/SPECT imaging) in NRG-mice bearing LNCaP tumors
Format: in vivo
Details: Avg
How it was run: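 LNCaP xenografts (~10 million cells, left dorsal flank) grown 4-6 weeks to 200-600 mm^3 in NRG mice. Tail-vein injection of 4-6 MBq ^68Ga or 18.5 MBq ^177Lu tracer under isoflurane; CT then 10-min static PET or 1-h SPECT. Biodistribution by gamma counting of weighed organs, expressed as %ID/g.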

## COc1ccc(CCCC(=O)NCC(=O)NC(CCCCNC(=O)CN2CCN(CC(=O)[O-])CCN(CC(=O)[O-])CCN(CC(=O)[O-])CC2)C(=O)NCC(=O)NCC2CCC(C(=O)NC(Cc3c4ccccc4cc4ccccc34)C(=O)NCCCCC(NC(=O)NC(CC(F)C(=O)O)C(=O)O)C(=O)O)CC2)cc1.[177Lu+3] (stereo not shown) [^177Lu-CCZ02008] ({Butanoyl(4-(4-MeO-phenyl))}-G[ξK](DOTA)G[X1][ξAla(9-anthryl)]-X2)
4 h p.i.
  Biodistribution: Adrenal gland: 5.91 % ID/g
  Biodistribution: Blood: 24.97 % ID/g
  Biodistribution: Bone: 1.49 % ID/g
  Biodistribution: Brain: 0.47 % ID/g
  Biodistribution: Fat: 2.63 % ID/g
  Biodistribution: Heart: 5.42 % ID/g
  Biodistribution: Intestine: 1.87 % ID/g
  Biodistribution: LNCaP tumor: 21.30 % ID/g
  Biodistribution: Lacrimal gland: 1.44 % ID/g
  Biodistribution: Liver: 4.26 % ID/g
  Biodistribution: Lungs: 10.19 % ID/g
  Biodistribution: Muscle: 1.75 % ID/g
  Biodistribution: Pancreas: 2.20 % ID/g
  Biodistribution: Salivary gland: 4.23 % ID/g
  Biodistribution: Seminal gland: 1.53 % ID/g
  Biodistribution: Spleen: 2.15 % ID/g
  Biodistribution: Stomach: 1.11 % ID/g
  Biodistribution: Testes: 3.83 % ID/g
  Biodistribution: Thyroid: 4.29 % ID/g
  Biodistribution: Urine: 76.61 % ID/g
  Biodistribution: kidney: 10.56 % ID/g
24 h p.i.
  Biodistribution: Adrenal gland: 2.39 % ID/g
  Biodistribution: Blood: 4.37 % ID/g
  Biodistribution: Bone: 0.36 % ID/g
  Biodistribution: Brain: 0.09 % ID/g
  Biodistribution: Fat: 0.71 % ID/g
  Biodistribution: Heart: 1.27 % ID/g
  Biodistribution: Intestine: 0.59 % ID/g
  Biodistribution: LNCaP tumor: 38.57 % ID/g
  Biodistribution: Lacrimal gland: 0.12 % ID/g
  Biodistribution: Liver: 1.16 % ID/g
  Biodistribution: Lungs: 2.49 % ID/g
  Biodistribution: Muscle: 0.40 % ID/g
  Biodistribution: Pancreas: 0.62 % ID/g
  Biodistribution: Salivary gland: 1.38 % ID/g
  Biodistribution: Seminal gland: 0.38 % ID/g
  Biodistribution: Spleen: 0.86 % ID/g
  Biodistribution: Stomach: 0.48 % ID/g
  Biodistribution: Testes: 1.86 % ID/g
  Biodistribution: Thyroid: 1.54 % ID/g
  Biodistribution: Urine: 28.57 % ID/g
  Biodistribution: kidney: 7.55 % ID/g
72 h p.i.
  Biodistribution: Adrenal gland: 2.59 % ID/g
  Biodistribution: Blood: 0.42 % ID/g
  Biodistribution: Bone: 0.26 % ID/g
  Biodistribution: Brain: 0.03 % ID/g
  Biodistribution: Fat: 0.39 % ID/g
  Biodistribution: Heart: 0.37 % ID/g
  Biodistribution: Intestine: 0.15 % ID/g
  Biodistribution: LNCaP tumor: 38.46 % ID/g
  Biodistribution: Lacrimal gland: 0.07 % ID/g
  Biodistribution: Liver: 0.47 % ID/g
  Biodistribution: Lungs: 0.69 % ID/g
  Biodistribution: Muscle: 0.11 % ID/g
  Biodistribution: Pancreas: 0.17 % ID/g
  Biodistribution: Salivary gland: 0.55 % ID/g
  Biodistribution: Seminal gland: 0.15 % ID/g
  Biodistribution: Spleen: 0.83 % ID/g
  Biodistribution: Stomach: 0.18 % ID/g
  Biodistribution: Testes: 0.92 % ID/g
  Biodistribution: Thyroid: 0.65 % ID/g
  Biodistribution: Urine: 4.51 % ID/g
  Biodistribution: kidney: 3.53 % ID/g
120 h p.i.
  Biodistribution: Adrenal gland: 1.39 % ID/g
  Biodistribution: Blood: 0.14 % ID/g
  Biodistribution: Bone: 0.14 % ID/g
  Biodistribution: Brain: 0.02 % ID/g
  Biodistribution: Fat: 0.22 % ID/g
  Biodistribution: Heart: 0.22 % ID/g
  Biodistribution: Intestine: 0.14 % ID/g
  Biodistribution: LNCaP tumor: 45.01 % ID/g
  Biodistribution: Lacrimal gland: 0.12 % ID/g
  Biodistribution: Liver: 0.30 % ID/g
  Biodistribution: Lungs: 0.30 % ID/g
  Biodistribution: Muscle: 0.09 % ID/g
  Biodistribution: Pancreas: 0.11 % ID/g
  Biodistribution: Salivary gland: 0.34 % ID/g
  Biodistribution: Seminal gland: 0.27 % ID/g
  Biodistribution: Spleen: 1.45 % ID/g
  Biodistribution: Stomach: 0.37 % ID/g
  Biodistribution: Testes: 0.67 % ID/g
  Biodistribution: Thyroid: 0.39 % ID/g
  Biodistribution: Urine: 3.80 % ID/g
  Biodistribution: kidney: 2.04 % ID/g

## COc1ccc(CCCC(=O)NCC(=O)NC(CCCCNC(=O)CN2CCN(CC(=O)[O-])CCN(CC(=O)[O-])CCN(CC(=O)[O-])CC2)CC(=O)NCC2CCC(C(=O)NC(Cc3c4ccccc4cc4ccccc34)C(=O)NCCCCC(NC(=O)NC(CCCC(=O)O)C(=O)O)C(=O)O)CC2)cc1.[68Ga+3] (stereo not shown) [^68Ga-CCZ02015]
1 h p.i.
  Biodistribution: Adrenal gland: 3.28 % ID/g
  Biodistribution: Blood: 15.78 % ID/g
  Biodistribution: Bone: 0.92 % ID/g
  Biodistribution: Brain: 0.25 % ID/g
  Biodistribution: Fat: 1.52 % ID/g
  Biodistribution: Heart: 3.19 % ID/g
  Biodistribution: Intestine: 1.46 % ID/g
  Biodistribution: LNCaP tumor: 11.16 % ID/g
  Biodistribution: Liver: 2.98 % ID/g
  Biodistribution: Lungs: 5.90 % ID/g
  Biodistribution: Muscle: 1.07 % ID/g
  Biodistribution: Pancreas: 1.34 % ID/g
  Biodistribution: Salivary gland: 2.19 % ID/g
  Biodistribution: Seminal gland: 0.72 % ID/g
  Biodistribution: Spleen: 1.28 % ID/g
  Biodistribution: Stomach: 0.46 % ID/g
  Biodistribution: Testes: 1.77 % ID/g
  Biodistribution: Thyroid: 2.54 % ID/g
  Biodistribution: Urine: 177.03 % ID/g
  Biodistribution: kidney: 11.93 % ID/g
3 h p.i.
  Biodistribution: Adrenal gland: 3.36 % ID/g
  Biodistribution: Blood: 10.81 % ID/g
  Biodistribution: Bone: 1.20 % ID/g
  Biodistribution: Brain: 0.19 % ID/g
  Biodistribution: Fat: 1.04 % ID/g
  Biodistribution: Heart: 2.55 % ID/g
  Biodistribution: Intestine: 1.17 % ID/g
  Biodistribution: LNCaP tumor: 22.60 % ID/g
  Biodistribution: Liver: 2.13 % ID/g
  Biodistribution: Lungs: 4.65 % ID/g
  Biodistribution: Muscle: 1.13 % ID/g
  Biodistribution: Pancreas: 1.10 % ID/g
  Biodistribution: Salivary gland: 2.18 % ID/g
  Biodistribution: Seminal gland: 1.63 % ID/g
  Biodistribution: Spleen: 1.01 % ID/g
  Biodistribution: Stomach: 0.84 % ID/g
  Biodistribution: Testes: 2.07 % ID/g
  Biodistribution: Thyroid: 2.09 % ID/g
  Biodistribution: Urine: 84.38 % ID/g
  Biodistribution: kidney: 10.94 % ID/g

Source: patent US20250186627A1, “RADIOLABELED COMPOUNDS TARGETING THE PROSTATE-SPECIFIC MEMBRANE ANTIGEN” (PROVINCIAL HEALTH SERVICES AUTHORITY, priority 2022, published 2025)
